Source: patent US20210308110A1, “ANTIVIRAL COMPOUNDS AND METHOD FOR TREATING RNA VIRAL INFECTION, PARTICULARLY COVID-19” (Senhwa Biosciences, Inc., priority 2020, published 2021)

Tests used:
SARS-CoV-2 [1] = experiment: SARS-CoV-2 plaque reduction neutralization test, plaque formation; assay type: cell-based; details: at 1.25 μM
SARS-CoV-2 [2] = experiment: SARS-CoV-2 infection of Vero E6 cells, quantified by N protein expression (IFA / PRNT); assay type: cell-based; details: Severe acute respiratory syndrome coronavirus 2, Vero C1008, Vero E6 cells pretreated 20 hr, infected at MOI=0.01 for 2 days, read-out: IC50 (anti-SARS-CoV-2 activity)
[3] = Cell viability test by Cell Counting Kit-8 (CCK-8); details: African green monkey
SARS-CoV-2 [4] = experiment: Mouse challenge with SARS-CoV-2, lung histopathology scoring; assay type: in vivo, AAV/hACE2 C57BL/6 mice; details: 50 mg/kg I.P., AAV/hACE2 mice, day 5 post-SARS-CoV-2 infection; score scale 0-5; 2 out of 5
in vitro = details: African green monkey

Row | Compound | reduction of plaque formation (SARS-CoV-2 [1]) [%] | IC50 (SARS-CoV-2 [2]) [nM] | CC50 [3] [nM] | clinical score of lung histopathology (SARS-CoV-2 [4]) | CC50 (in vitro) [nM]
1 | O=C(O)c1ccc2c(c1)nc(Nc1cccc(Cl)c1)c1ccncc12 [Compound A, Silmitasertib] | 75 | 2740 | > 5000 | less than 2 | 
2 | O=C1NC(=O)/C(=C/c2cnn3c(NC4CC4)cc(Nc4cc(Cl)ccc4F)nc23)N1 [Compound B] | 75 | 126 | 5900 |  | 
3 | CC(N)C(=O)OCN1C(=O)N/C(=C\c2cnn3c(NC4CC4)cc(Nc4cc(Cl)ccc4F)nc23)C1=O (stereo not drawn) [Compound C] | 75 | 97 | 4220 |  | 
4 | CCC(CC)COC(=O)[C@H](C)N[P@](=O)(OC[C@H]1O[C@@](C#N)(c2ccc3c(N)ncnn23)[C@H](O)[C@@H]1O)Oc1ccccc1 [Compound E, Remdesivir, reference compound] |  | 830 |  |  | > 5000
